Laboratory results published in patent US9200008B2 (ASKA PHARMACEUTICAL CO., LTD., priority 2010, dated 2015).

Test system: Human prostate cancer cell lines (PC-3 cells)
Assay: Measurement of cell death-inducing activity (Test Example 1)
Assay type: cell-based
Conditions: PC-3, 48 h, 48 hours after addition, tested at 10, 1, 0.1, 0.025 and 0.00625 μmol/L, qualitative evaluation of 10 fields, read-out: Concentration showing the cell death-inducing activity (cell death-inducing rate not less than 40%)
Method: The cell death-inducing activity of the compound represented by the formula (1) or the salt thereof was measured as follows.
Human prostate cancer cell lines (PC-3 cells) were seeded to 6-well plates at 1×10^5 cells/2 mL/well, and cultured in the presence of 5% CO2 at 37° C. for 48 hours. Thereafter, each compound was added thereto so as to provide 10, 1, 0.1, 0.025 and 0.00625 μmol/L. As a control, DMSO was added. After the addition, the cells were continuously cultured for 48 hours. […] When the cell death-inducing rate was not less than 40%, the compound was judged to have the cell death-inducing activity.

**Q.** For `COc1cc(F)ccc1-c1nc(C)c(NC(=O)OCc2ccc3c(c2)ncn3C(C)C)s1` [Example 9-70], which minimal effective concentration is on record?
**A.** 0.1 µM

**Q.** How did the minimal effective concentration turn out when `COc1cc(Cl)ccc1-c1nc(C)c(NC(=O)OCc2ccc3c(c2)ncn3C(C)C)s1` [Example 9-71] was run?
**A.** 0.025 µM

**Q.** How did the minimal effective concentration turn out when `COc1ccc(-c2nc(C)c(NC(=O)OCc3ccc4c(c3)ncn4C(C)C)s2)c(OC)c1` [Example 9-72] was run?
**A.** 1 µM

**Q.** How did the minimal effective concentration turn out when `COc1ccccc1-c1nc(C)c(NC(=O)OCc2ccc3c(c2)nc(C)n3C)s1` [Example 9-74] was run?
**A.** 1 µM

**Q.** `COc1cc(F)ccc1-c1nc(C)c(NC(=O)OCc2ccc3c(c2)nc(C)n3C)s1` [Example 9-75] was tested. Which minimal effective concentration did it give?
**A.** 0.1 µM

**Q.** For `COc1cc(Cl)ccc1-c1nc(C)c(NC(=O)OCc2ccc3c(c2)nc(C)n3C)s1` [Example 9-76], which minimal effective concentration is on record?
**A.** 0.025 µM

**Q.** Which minimal effective concentration does the source give for `COc1cc(C)ccc1-c1nc(C)c(NC(=O)OCc2ccc3c(c2)nc(C)n3C)s1` [Example 9-77] here?
**A.** 0.025 µM

**Q.** With `Cc1ccc(-c2nc(C)c(NC(=O)OCc3ccc4c(c3)nc(C)n4C)s2)c(C)c1` [Example 9-78] as the molecule, how does the minimal effective concentration read?
**A.** 0.025 µM

**Q.** Which minimal effective concentration does the source give for `Cc1nc(-c2ccc(F)cc2Cl)sc1NC(=O)OCc1ccc2c(c1)nc(C)n2C` [Example 9-79] here?
**A.** 0.1 µM

**Q.** For `Cc1cc(F)ccc1-c1nc(C)c(NC(=O)OCc2ccc3c(c2)nc(C)n3C)s1` [Example 9-80], which minimal effective concentration is on record?
**A.** 0.1 µM

**Q.** For `Cc1cc(Cl)ccc1-c1nc(C)c(NC(=O)OCc2ccc3c(c2)nc(C)n3C)s1` [Example 9-81], which minimal effective concentration is on record?
**A.** 0.025 µM

**Q.** `CCc1nc2cc(COC(=O)Nc3sc(-c4ccc(Cl)cc4OC)nc3C)ccc2n1C` [Example 9-82] was tested. Which minimal effective concentration did it give?
**A.** 0.025 µM

**Q.** For `CCc1nc2cc(COC(=O)Nc3sc(-c4ccc(C)cc4C)nc3C)ccc2n1C` [Example 9-83], which minimal effective concentration is on record?
**A.** 0.1 µM

**Q.** How did the minimal effective concentration turn out when `CCc1ccccc1-c1nc(C)c(NC(=O)OCc2ccc3c(c2)nc(C)n3CC)s1` [Example 9-84] was run?
**A.** 1 µM

**Q.** For `CCn1c(C)nc2cc(COC(=O)Nc3sc(-c4ccccc4OC)nc3C)ccc21` [Example 9-85], which minimal effective concentration is on record?
**A.** 1 µM

**Q.** `CCn1c(C)nc2cc(COC(=O)Nc3sc(-c4ccc(Cl)cc4OC)nc3C)ccc21` [Example 9-86] was tested. Which minimal effective concentration did it give?
**A.** 0.025 µM

**Q.** Which minimal effective concentration does the source give for `CCn1c(C)nc2cc(COC(=O)Nc3sc(-c4ccc(C)cc4OC)nc3C)ccc21` [Example 9-87] here?
**A.** 0.025 µM

**Q.** Which minimal effective concentration does the source give for `CCn1c(C)nc2cc(COC(=O)Nc3sc(-c4ccc(C)cc4C)nc3C)ccc21` [Example 9-88] here?
**A.** 0.1 µM

**Q.** Which minimal effective concentration does the source give for `CCc1ccccc1-c1nc(C)c(NC(=O)OCc2ccc3c(c2)nc2n3CCOC2)s1` [Example 9-90] here?
**A.** 0.1 µM

**Q.** With `COc1ccccc1-c1nc(C)c(NC(=O)OCc2ccc3c(c2)nc2n3CCOC2)s1` [Example 9-91] as the molecule, how does the minimal effective concentration read?
**A.** 0.025 µM

**Q.** Which minimal effective concentration does the source give for `COc1cc(F)ccc1-c1nc(C)c(NC(=O)OCc2ccc3c(c2)nc2n3CCOC2)s1` [Example 9-92] here?
**A.** 0.00625 µM

**Q.** With `COc1cc(Cl)ccc1-c1nc(C)c(NC(=O)OCc2ccc3c(c2)nc2n3CCOC2)s1` [Example 9-93] as the molecule, how does the minimal effective concentration read?
**A.** 0.00625 µM

**Q.** `COc1ccc(-c2nc(C)c(NC(=O)OCc3ccc4c(c3)nc3n4CCOC3)s2)c(OC)c1` [Example 9-95] was tested. Which minimal effective concentration did it give?
**A.** 0.025 µM

**Q.** How did the minimal effective concentration turn out when `Cc1ccc(-c2nc(C)c(NC(=O)OCc3ccc4c(c3)nc3n4CCOC3)s2)c(C)c1` [Example 9-96] was run?
**A.** 0.00625 µM

**Q.** For `Cc1cc(F)ccc1-c1nc(C)c(NC(=O)OCc2ccc3c(c2)nc2n3CCOC2)s1` [Example 9-97], which minimal effective concentration is on record?
**A.** 0.025 µM

**Q.** Which minimal effective concentration does the source give for `Cc1cc(Cl)ccc1-c1nc(C)c(NC(=O)OCc2ccc3c(c2)nc2n3CCOC2)s1` [Example 9-98] here?
**A.** 0.00625 µM

**Q.** Which minimal effective concentration does the source give for `Cc1ccccc1-c1nc(C)c(NC(=O)OCc2ccc3c(c2)nc2n3CCC2)s1` [Example 9-99] here?
**A.** 1 µM

**Q.** `CCc1ccccc1-c1nc(C)c(NC(=O)OCc2ccc3c(c2)nc2n3CCC2)s1` [Example 9-100] was tested. Which minimal effective concentration did it give?
**A.** 0.1 µM

**Q.** `COc1ccccc1-c1nc(C)c(NC(=O)OCc2ccc3c(c2)nc2n3CCC2)s1` [Example 9-101] was tested. Which minimal effective concentration did it give?
**A.** 0.1 µM

**Q.** With `CCc1cc(F)ccc1-c1nc(C)c(NC(=O)OCc2ccc3c(c2)nc2n3CCC2)s1` [Example 9-102] as the molecule, how does the minimal effective concentration read?
**A.** 0.025 µM

**Q.** Which minimal effective concentration does the source give for `COc1cc(Cl)ccc1-c1nc(C)c(NC(=O)OCc2ccc3c(c2)nc2n3CCC2)s1` [Example 9-103] here?
**A.** 0.00625 µM

**Q.** Which minimal effective concentration does the source give for `COc1cc(C)ccc1-c1nc(C)c(NC(=O)OCc2ccc3c(c2)nc2n3CCC2)s1` [Example 9-104] here?
**A.** 0.1 µM

**Q.** `Cc1cc(F)ccc1-c1nc(C)c(NC(=O)OCc2ccc3c(c2)nc2n3CCC2)s1` [Example 9-106] was tested. Which minimal effective concentration did it give?
**A.** 0.025 µM

**Q.** `Cc1cc(Cl)ccc1-c1nc(C)c(NC(=O)OCc2ccc3c(c2)nc2n3CCC2)s1` [Example 9-107] was tested. Which minimal effective concentration did it give?
**A.** 0.025 µM

**Q.** For `Cc1ccc(-c2nc(C)c(NC(=O)OCc3ccc4c(c3)nc3n4CCC3)s2)c(C)c1` [Example 9-108], which minimal effective concentration is on record?
**A.** 0.025 µM

**Q.** With `CCc1ccccc1-c1nc(C)c(NC(=O)OCc2ccc3c(c2)nc2n3CCCC2)s1` [Example 9-109] as the molecule, how does the minimal effective concentration read?
**A.** 1 µM

**Q.** Which minimal effective concentration does the source give for `COc1ccccc1-c1nc(C)c(NC(=O)OCc2ccc3c(c2)nc2n3CCCC2)s1` [Example 9-110] here?
**A.** 1 µM

**Q.** How did the minimal effective concentration turn out when `COc1cc(F)ccc1-c1nc(C)c(NC(=O)OCc2ccc3c(c2)nc2n3CCCC2)s1` [Example 9-111] was run?
**A.** 0.1 µM

**Q.** With `COc1cc(C)ccc1-c1nc(C)c(NC(=O)OCc2ccc3c(c2)nc2n3CCCC2)s1` [Example 9-112] as the molecule, how does the minimal effective concentration read?
**A.** 0.1 µM

**Q.** How did the minimal effective concentration turn out when `Cc1ccc(-c2nc(C)c(NC(=O)OCc3ccc4c(c3)nc3n4CCCC3)s2)c(C)c1` [Example 9-113] was run?
**A.** 0.025 µM

**Q.** `Cc1cc(Cl)ccc1-c1nc(C)c(NC(=O)OCc2ccc3c(c2)nc2n3CCCC2)s1` [Example 9-115] was tested. Which minimal effective concentration did it give?
**A.** 0.1 µM

**Q.** Which minimal effective concentration does the source give for `COc1cc(F)ccc1-c1nc(C)c(NC(=O)OCc2ccc3c(c2)nc2n3C(C)CCC2)s1` (centres unmarked) [Example 9-116] here?
**A.** 10 µM

**Q.** Which minimal effective concentration does the source give for `Cc1ccc(-c2nc(C)c(NC(=O)OCc3ccc4c(c3)nc3n4C(C)CCC3)s2)c(C)c1` (centres unmarked) [Example 9-118] here?
**A.** 10 µM

**Q.** For `Cc1cc(Cl)ccc1-c1nc(C)c(NC(=O)OCc2ccc3c(c2)nc2n3C(C)CCC2)s1` (centres unmarked) [Example 9-119], which minimal effective concentration is on record?
**A.** 10 µM

**Q.** How did the minimal effective concentration turn out when `COc1cc(Cl)ccc1-c1nc(C)c(NC(=O)OCc2ccc3c(c2)nc2n3CCC(C)C2)s1` (centres unmarked) [Example 9-120] was run?
**A.** 0.1 µM

**Q.** With `COc1cc(C)ccc1-c1nc(C)c(NC(=O)OCc2ccc3c(c2)nc2n3CCC(C)C2)s1` (centres unmarked) [Example 9-121] as the molecule, how does the minimal effective concentration read?
**A.** 1 µM

**Q.** Which minimal effective concentration does the source give for `Cc1ccc(-c2nc(C)c(NC(=O)OCc3ccc4c(c3)nc3n4CCC(C)C3)s2)c(C)c1` (centres unmarked) [Example 9-122] here?
**A.** 1 µM

**Q.** For `Cc1ccc(-c2nc(C)c(NC(=O)OCc3ccc4c(c3)nc3n4CCCCC3)s2)c(C)c1` [Example 9-124], which minimal effective concentration is on record?
**A.** 10 µM

**Q.** Which minimal effective concentration does the source give for `CCc1ccccc1-c1nc(C)c(NC(=O)OCc2ccc3c(cnn3C)c2)s1` [Example 9-125] here?
**A.** 1 µM

**Q.** For `COc1ccccc1-c1nc(C)c(NC(=O)OCc2ccc3c(cnn3C)c2)s1` [Example 9-126], which minimal effective concentration is on record?
**A.** 0.1 µM

**Q.** How did the minimal effective concentration turn out when `COc1cc(F)ccc1-c1nc(C)c(NC(=O)OCc2ccc3c(cnn3C)c2)s1` [Example 9-127] was run?
**A.** 0.1 µM

**Q.** How did the minimal effective concentration turn out when `COc1cc(Cl)ccc1-c1nc(C)c(NC(=O)OCc2ccc3c(cnn3C)c2)s1` [Example 9-128] was run?
**A.** 0.00625 µM

**Q.** How did the minimal effective concentration turn out when `COc1cc(C)ccc1-c1nc(C)c(NC(=O)OCc2ccc3c(cnn3C)c2)s1` [Example 9-129] was run?
**A.** 0.00625 µM
